Experimental data published in patent publication US20090082337A1, “Compositions Comprising Quinolone and Methods for Treating or Controlling Infections” (priority 2007, published 2009).
In brackets after ≈: the same amount, converted by molar mass.

What follows are compounds tested on Ofloxacin-resistant Enterobacteriaceae (assay: organism not typed).
Assay type: cell-based
`N[C@@H]1CCCCN(c2c(F)cc3c(=O)c(C(=O)O)cn(C4CC4)c3c2Cl)C1` [Compound Having Formula IV] showed an MIC90 of 16 µg/mL.
Compound `CCn1cc(C(=O)O)c(=O)c2cc(F)c(N3CCNCC3)cc21` [Norfloxacin] has an MIC90 of 128 µg/mL (≈ 401 µM).
In the case of `CC1COc2c(N3CCN(C)CC3)c(F)cc3c(=O)c(C(=O)O)cn1c23` (stereo not drawn) [Ofloxacin, ofloxacin], the MIC90 is reported as 64 µg/mL (≈ 177 µM).
